Patent US20250092030A1, “ENHANCERS OF PARTICULATE GUANYLYL CYCLASE RECEPTOR A” (Mayo Foundation for Medical Education and Research, priority 2023, published 2025)
Where “and” joins values, the source holds several entries; their conditions need not be identical. Equal entries are not always repeated.

Molecular target: T1, particulate guanylyl cyclase receptor A (pGC-A) (Homo sapiens, UniProt P16066)
T1 construct: expressed in transfected cells; host or cells: HEK293
T1 sequence (P16066 33-1061): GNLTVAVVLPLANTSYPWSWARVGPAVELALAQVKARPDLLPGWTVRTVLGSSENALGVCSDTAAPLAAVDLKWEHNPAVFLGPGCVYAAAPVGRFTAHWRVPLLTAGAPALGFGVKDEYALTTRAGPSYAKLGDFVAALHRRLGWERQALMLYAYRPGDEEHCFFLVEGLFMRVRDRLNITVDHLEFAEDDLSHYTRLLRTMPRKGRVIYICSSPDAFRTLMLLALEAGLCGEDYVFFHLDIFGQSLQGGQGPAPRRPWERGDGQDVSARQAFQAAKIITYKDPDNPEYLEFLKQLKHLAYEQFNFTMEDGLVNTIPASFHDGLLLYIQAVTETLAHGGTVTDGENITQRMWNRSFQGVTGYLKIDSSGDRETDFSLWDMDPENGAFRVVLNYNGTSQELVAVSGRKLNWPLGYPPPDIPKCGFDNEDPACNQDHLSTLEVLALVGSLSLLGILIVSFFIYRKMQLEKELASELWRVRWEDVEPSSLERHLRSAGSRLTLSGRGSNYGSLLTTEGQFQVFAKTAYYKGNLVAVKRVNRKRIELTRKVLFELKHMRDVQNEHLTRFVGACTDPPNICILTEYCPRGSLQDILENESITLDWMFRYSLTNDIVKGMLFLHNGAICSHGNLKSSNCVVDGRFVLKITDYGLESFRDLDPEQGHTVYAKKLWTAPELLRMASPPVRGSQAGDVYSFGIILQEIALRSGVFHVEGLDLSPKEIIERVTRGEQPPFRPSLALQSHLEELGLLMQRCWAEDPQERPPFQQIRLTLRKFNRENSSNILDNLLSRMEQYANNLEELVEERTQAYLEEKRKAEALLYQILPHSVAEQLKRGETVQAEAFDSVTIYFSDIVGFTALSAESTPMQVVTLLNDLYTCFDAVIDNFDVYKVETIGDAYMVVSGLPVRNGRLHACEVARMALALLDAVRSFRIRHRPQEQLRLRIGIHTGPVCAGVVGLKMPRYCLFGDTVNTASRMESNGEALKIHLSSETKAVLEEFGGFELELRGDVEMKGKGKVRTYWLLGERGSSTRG
T1 sequence (P01160 124-151 partner limits assumed): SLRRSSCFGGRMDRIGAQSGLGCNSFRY
Assay: cGMP production by HTRF in HEK293 cells overexpressing pGC-A, with ANP
Format: cell-based
Details: for Emax: HEK293, HEK293 cells overexpressing pGC-A, read-out: Max efficacy; for Emax / Max efficacy: cGMP normalized to maximal amount produced by an EC80 concentration of ANP; for Max efficacy / EC50: HEK293 cells overexpressing pGC-A; for EC50: test compound plus EC20 concentration of ANP, cGMP by HTRF
From the text: Assay: Generally, the assay monitors the production of cGMP, the second messenger generated by pGC-A, by Time-Resolved Florescence (HTRF) in HEK293 cells overexpressing the pGC-A. pGC-A suspension cells were stimulated in the presence of the test compound and an EC20 concentration of ANP. The quantity of cGMP was detected by competitive immunoassay using Eu^3+ cryptate-labeled anti-cGMP and d2-labeled cGMP and normalized to maximal amount produced by an EC80 concentration of ANP. Compound EC50 values were determined in the primary assay, in the presence or absence of ANP, to determine mode of action as positive modulators and tested for selectivity in the same assay platform but in HEK cells overexpressing the particulate guanylyl cyclase B receptor (pGC-B), of which CNP is the endogenous ligand.
Assay details: 20 nL of 10 μM test compound in DMSO was added to columns 5-48 of 1536 well white high base screening plates (Corning, New York, NY) cells using 550 ECHO acoustic dispenser (Labcyte, San Jose, CA). Alpha-atrial natriuretic peptide (ANP) (Phoenix Pharmaceutics) was prepared as stock aliquots at 5 μM in PBS with 0.1% BSA. An approximate […] concentration of ANP ([…]) in assay buffer (HBSS containing 5 mM HEPES and 0.05% BSA) was added to columns 3-48 at a volume of 1 μL. Assay buffer only was added to column 1 and assay buffer containing a saturating concentration of ANP (5 nM) was added to column 2. HEK293 cells overexpressing GC-A were resuspended in assay media (OptimMem media containing 2% Heat-inactivated Fetal bovine serum and L-glutamine) at a density of 6×10^5 cells/mL and 2 μL were plated in screening plates (1200 cells/well) in suspension using a Bioraptr 2. Plates were spun at 1000 rpm for 1 min and incubated for 30 min at room temperature. 1.5 μL d2-labeled cGMP followed by 1.5 μL Eu^3+ cryptate-labeled anti-cGMP cGMP detection kit (CiBio; #62GM2PEC) prepared according to manufacturer's protocol were added to all wells using a Bioraptr 2 and TR-FRET signal was detected on an EnVision detector (PerkinElmer). Wells treated with 0.3% DMSO only serve as blank controls (column 1); wells treated with 0.3% DMSO and 5 nM ANP (columns 2) serve as positive controls and wells treated with 0.3% DMSO and […] ANP (columns 3-4) serve as negative controls.

In the case of `Cn1cc(N2CCCC(C(=O)Nc3nc4c(F)cc(F)cc4s3)C2)cn1` (stereo not shown) [compound 078], the Emax is reported as 86%, the Max efficacy is reported as 81% and the EC50 is reported as 4.9 µM and 2.1 µM.
In the case of `O=C(Nc1nc2c(F)cc(F)cc2s1)C1CCCN(c2ccccn2)C1` (stereo not shown) [compound 079], the EC50 is reported as > 5 µM.
`O=C(Nc1nc2c(F)cc(F)cc2s1)C1CCCN(c2cccnc2)C1` (stereo not shown) [compound 080] was tested, and the Max efficacy was 135% and 104% and the EC50 was 7.4 µM and 2.5 µM.
In the case of `O=C(Nc1nc2c(F)cc(F)cc2s1)C1CCCN(c2ccncc2)C1` (stereo not shown) [compound 081], the Emax is reported as 87%, the Max efficacy is reported as 87, 87, 87% and the EC50 is reported as 0.1 µM and 0.07 µM and 0.3 µM.
`CN1CC(N2CCCC(C(=O)Nc3nc4c(F)cc(F)cc4s3)C2)C1` (stereo not shown) [compound 084] was tested, and the Emax was 83%, the Max efficacy was 67% and the EC50 was 0.07 µM and 0.02 µM.
In the case of `O=C(Nc1nc2c(F)cc(F)cc2s1)C1CCCN(C2CNC2)C1` (stereo not shown) [compound 085], the Emax is reported as 89%, the Max efficacy is reported as 84% and the EC50 is reported as 0.08 µM and 0.2 µM.
`CN1CCC(N2CCCC(C(=O)Nc3nc4c(F)cc(F)cc4s3)C2)C1` (stereo not shown) [compound 090] was tested, and the Emax was 85%, the Max efficacy was 69% and the EC50 was 0.16 µM and 0.07 µM.
With `O=C(Nc1nc2c(F)cc(F)cc2s1)C1CCCN(C2CCNC2)C1` (stereo not shown) [compound 091] the Emax was 72% and the EC50 was 1.3 µM.
Work on `C=CCN1CCC(N2CCCC(C(=O)Nc3nc4c(F)cc(F)cc4s3)C2)C1` (stereo not shown) [compound 092] yielded an Emax of 89% and an EC50 of 0.05 µM.
Compound `COCCN1CCC(N2CCCC(C(=O)Nc3nc4c(F)cc(F)cc4s3)C2)C1` (stereo not shown) [compound 093] has an Emax of 86% and an EC50 of 0.09 µM.
For `COC(=O)CN1CCC(N2CCCC(C(=O)Nc3nc4c(F)cc(F)cc4s3)C2)C1` (stereo not shown) [compound 094], the Emax was 93% and the EC50 was 1 µM.
`O=C(O)CN1CCC(N2CCCC(C(=O)Nc3nc4c(F)cc(F)cc4s3)C2)C1` (stereo not shown) [compound 095] was tested, and the EC50 was > 5 µM.
Compound `CN1CCC(N2CCCC(C(=O)Nc3nc4c(F)cc(F)cc4s3)C2)C1=O` (stereo not shown) [compound 097] has an Emax of 89% and an EC50 of 0.7 µM.
`O=C(Nc1nc2c(F)cc(F)cc2s1)C1CCCN(C2CCCC2)C1` (stereo not shown) [compound 099] showed an Emax of 91% and an EC50 of 0.6 µM.
Work on `CN1CCC(N2CCCC(C(=O)Nc3nc4c(Br)cccc4s3)C2)C1` (stereo not shown) [compound 100] yielded an Emax of 84% and an EC50 of 0.25 µM.
`O=C(Nc1nc2c(Br)cccc2s1)C1CCCN(C2CCNC2)C1` (stereo not shown) [compound 101] was tested, and the Emax was 84% and the EC50 was 0.5 µM.
Work on `CN1CC(N2CCCC(C(=O)Nc3nc4c(Cl)cc(F)cc4s3)C2)C1` (stereo not shown) [compound 103] yielded an Emax of 82% and an EC50 of 0.28 µM.
For `O=C(Nc1nc2c(Cl)cc(F)cc2s1)C1CCCN(c2ccncc2)C1` (stereo not shown) [compound 104], the Emax was 70% and the EC50 was 0.28 µM.
`Cc1cc(N2CCCC(C(=O)Nc3nc4c(F)cc(F)cc4s3)C2)ccn1` (stereo not shown) [compound 105] was tested, and the Emax was 87% and the EC50 was 0.09 µM.
With `O=C(Nc1nc2c(F)cc(F)cc2s1)C1CCCN(c2ccnc(F)c2)C1` (stereo not shown) [compound 106] the Emax was 101% and the EC50 was 3.5 µM.
Work on `COc1cc(N2CCCC(C(=O)Nc3nc4c(F)cc(F)cc4s3)C2)ccn1` (stereo not shown) [compound 107] yielded an Emax of 101% and an EC50 of 2.1 µM.
In the case of `Nc1cc(N2CCCC(C(=O)Nc3nc4c(F)cc(F)cc4s3)C2)ccn1` (stereo not shown) [compound 108], the Emax is reported as 88% and the EC50 is reported as 0.6 µM.
For `O=C(Nc1nc2c(F)cc(F)cc2s1)C1CCCN(c2ccncn2)C1` (stereo not shown) [compound 109], the Emax was 82%, the Max efficacy was 74% and the EC50 was 0.2 µM and 1.08 µM.
`O=C(Nc1nc2c(F)cc(F)cc2s1)C1CCCN(Cc2ccncc2)C1` (stereo not shown) [compound 110] was tested, and the Emax was 95%, the Max efficacy was 78% and the EC50 was 0.46 µM and 1.1 µM.
`Cc1cncnc1N1CCCC(C(=O)Nc2nc3c(F)cc(F)cc3s2)C1` (stereo not shown) [compound 111] was tested, and the Emax was 65% and the EC50 was 0.4 µM.
`O=C(Nc1nc2c(F)cc(F)cc2s1)C1CCCN(c2ccncc2F)C1` (stereo not shown) [compound 112] was tested, and the Emax was 97%.
In the case of `O=C(Nc1nc2c(F)cc(F)cc2s1)C1CCCN(c2ccncc2Br)C1` (stereo not shown) [compound 113], the EC50 is reported as > 5 µM.
`O=C(Nc1nc2c(Cl)cc(F)cc2s1)C1CCCN(c2ccnc3ccccc23)C1` (stereo not shown) [compound 114] was tested, and the EC50 was > 5 µM.
`O=C(Nc1nc2c(Cl)cc(F)cc2s1)C1CCCN(c2ccnnc2)C1` (stereo not shown) [compound 115] was tested, and the Emax was 56% and the EC50 was 0.1 µM.
`CC1C(N2CCCC(C(=O)Nc3nc4c(Cl)cc(F)cc4s3)C2)CN1C` (stereo not shown) [compound 130] showed an Emax of 94% and an EC50 of 0.12 µM.
`CC1NCC1N1CCCC(C(=O)Nc2nc3c(Cl)cc(F)cc3s2)C1` (stereo not shown) [compound 131] showed an Emax of 81% and an EC50 of 0.13 µM.
Compound `CCN1CC(N2CCCC(C(=O)Nc3nc4c(Cl)cc(F)cc4s3)C2)C1` (stereo not shown) [compound 135] has an Emax of 85% and an EC50 of 0.11 µM.
Compound `O=C(Nc1nc2c(Cl)cc(F)cc2s1)C1CCCN(C2CNC2)C1` (stereo not shown) [compound 136] has an Emax of 46% and an EC50 of 0.3 µM.
In the case of `CCC(C)N1CC(N2CCCC(C(=O)Nc3nc4c(Cl)cc(F)cc4s3)C2)C1` (stereo not shown) [compound 137], the Emax is reported as 80% and the EC50 is reported as 0.08 µM.
In the case of `CC(=O)N1CC(N2CCCC(C(=O)Nc3nc4c(Cl)cc(F)cc4s3)C2)C1` (stereo not shown) [compound 138], the Emax is reported as 46% and the EC50 is reported as 1.1 µM.
Work on `COC(=O)CN1CC(N2CCCC(C(=O)Nc3nc4c(Cl)cc(F)cc4s3)C2)C1` (stereo not shown) [compound 139] yielded an Emax of 79% and an EC50 of 0.2 µM.
With `CN(C)CCN1CCCC(C(=O)Nc2nc(-c3ccccc3)cs2)C1` (stereo not shown) [compound 144] the EC50 was > 5 µM.
`CN(C)CCN1CCCC(C(=O)Nc2nc(-c3ccccc3F)cs2)C1` (stereo not shown) [compound 145] was tested, and the EC50 was > 5 µM.
In the case of `CN(C)CCN1CCCC(C(=O)Nc2nc(-c3cccc(F)c3)cs2)C1` (stereo not shown) [compound 146], the EC50 is reported as > 5 µM.
For `CN(C)CCN1CCCC(C(=O)Nc2nc(-c3ccc(F)cc3)cs2)C1` (stereo not shown) [compound 147], the EC50 was > 5 µM.
In the case of `CN(C)CCN1CCCC(C(=O)Nc2nc(-c3ccccc3Cl)cs2)C1` (stereo not shown) [compound 148], the EC50 is reported as > 5 µM.
`CN(C)CCN1CCCC(C(=O)Nc2nc(-c3cccc(Cl)c3)cs2)C1` (stereo not shown) [compound 149] was tested, and the EC50 was > 5 µM.
`CN(C)CCN1CCCC(C(=O)Nc2nc(-c3ccc(Cl)cc3)cs2)C1` (stereo not shown) [compound 150] was tested, and the EC50 was > 5 µM.
In the case of `Cc1ccccc1-c1csc(NC(=O)C2CCCN(CCN(C)C)C2)n1` (stereo not shown) [compound 151], the EC50 is reported as > 5 µM.
`Cc1cccc(-c2csc(NC(=O)C3CCCN(CCN(C)C)C3)n2)c1` (stereo not shown) [compound 152] was tested, and the EC50 was > 5 µM.
For `Cc1ccc(-c2csc(NC(=O)C3CCCN(CCN(C)C)C3)n2)cc1` (stereo not shown) [compound 153], the EC50 was > 5 µM.
`COc1ccccc1-c1csc(NC(=O)C2CCCN(CCN(C)C)C2)n1` (stereo not shown) [compound 154] was tested, and the EC50 was > 5 µM.
With `COc1cccc(-c2csc(NC(=O)C3CCCN(CCN(C)C)C3)n2)c1` (stereo not shown) [compound 155] the EC50 was > 5 µM.
In the case of `COc1ccc(-c2csc(NC(=O)C3CCCN(CCN(C)C)C3)n2)cc1` (stereo not shown) [compound 156], the EC50 is reported as > 5 µM.
In the case of `COCCOc1ccc(-c2csc(NC(=O)C3CCCN(CCN(C)C)C3)n2)cc1` (stereo not shown) [compound 160], the EC50 is reported as > 5 µM.
